In ChEMBL document CHEMBL3885861, “Open TG-GATES”:

Organism: Rattus norvegicus
Assay: Open TG-GATES - Regimen: Daily Repeat
Assay type: toxicity, organism-based, Sprague-Dawley
Set-up: regimen Daily Repeat, gender Male, age 6 weeks
Settings: in vivo, po, route gavage; for KIDNEY_L / KIDNEY_R / KIDNEY_TOTAL: tissue Kidney; for AST / CRE / GLC / IP / K / LDH / RALB / TBIL / TC / TP / gamma-GTP: tissue Plasma
[1] = 0 mg/kg, 72 h, dose level Control, time 3 day
[2] = 0 mg/kg, 72 h, tissue Blood, dose level Control, time 3 day
[3] = 0 mg/kg, […], dose level Control, time 7 day
[4] = 0 mg/kg, […], dose level Control, time 14 day
[5] = 0 mg/kg, […], dose level Control, time 28 day
[6] = 0 mg/kg, […], tissue Blood, dose level Control, time 7 day
[7] = 0 mg/kg, […], tissue Blood, dose level Control, time 14 day
[8] = 0 mg/kg, […], tissue Blood, dose level Control, time 28 day
[9] = 10 mg/kg, 72 h, dose level Low, time 3 day
[10] = 10 mg/kg, 72 h, tissue Blood, dose level Low, time 3 day
[11] = 10 mg/kg, […], dose level Low, time 7 day
[12] = 10 mg/kg, […], dose level Low, time 14 day
[13] = 10 mg/kg, […], dose level Low, time 28 day
[14] = 10 mg/kg, […], tissue Blood, dose level Low, time 7 day
[15] = 10 mg/kg, […], tissue Blood, dose level Low, time 14 day
[16] = 10 mg/kg, […], tissue Blood, dose level Low, time 28 day

## CN(C)CCCN1c2ccccc2CCc2ccccc21 [IMIPRAMINE]
[1]
  TERMINAL_BW: 230.9 g
  KIDNEY_L: 1 g
  KIDNEY_R: 1 g
  KIDNEY_TOTAL: 2 g
  AST: 68.2 IU/L
  CRE: 0.2 mg/dL
  GLC: 180.6 mg/dL
  IP: 7.7 mg/dL
  K: 4.2 meq/L
  LDH: 64.8 IU/L
  RALB: 2.6 g/dL
  TBIL: 0.056 mg/dL
  TC: 79.2 mg/dL
  TP: 5.7 g/dL
  gamma-GTP: 1 IU/L
[2]
  APTT: 16.3 s
  Bas: 0%
  Eos: 1%
  Fbg: 278.8 mg/dL
  Ht: 40.6%
  Lym: 77.8%
  MCHC: 32.6%
  MCV: 63.2 fL
  Mono: 3%
  PT: 15.8 s
  Plat: 111.4 x10_4/uL
  RBC: 642.2 x10_4/ul
  Ret: 6.7%
[3]
  TERMINAL_BW: 270.9 g
  KIDNEY_L: 1.1 g
  KIDNEY_R: 1.1 g
  KIDNEY_TOTAL: 2.2 g
  AST: 66.2 IU/L
  CRE: 0.2 mg/dL
  GLC: 185.6 mg/dL
  IP: 7.7 mg/dL
  K: 4 meq/L
  LDH: 114 IU/L
  RALB: 2.6 g/dL
  TBIL: 0.056 mg/dL
  TC: 81.4 mg/dL
  TP: 5.9 g/dL
  gamma-GTP: 0.4 IU/L
[4]
  TERMINAL_BW: 328.3 g
  KIDNEY_L: 1.3 g
  KIDNEY_R: 1.2 g
  KIDNEY_TOTAL: 2.5 g
  AST: 63.6 IU/L
  CRE: 0.2 mg/dL
  GLC: 183.8 mg/dL
  IP: 6.8 mg/dL
  K: 4.2 meq/L
  LDH: 97.4 IU/L
  RALB: 2.6 g/dL
  TBIL: 0.05 mg/dL
  TC: 72.6 mg/dL
  TP: 5.9 g/dL
  gamma-GTP: 1 IU/L
[5]
  TERMINAL_BW: 419.8 g
  KIDNEY_L: 1.4 g
  KIDNEY_R: 1.4 g
  KIDNEY_TOTAL: 2.9 g
  AST: 55.6 IU/L
  CRE: 0.2 mg/dL
  GLC: 188.8 mg/dL
  IP: 6.9 mg/dL
  K: 3.9 meq/L
  LDH: 43.4 IU/L
  RALB: 2.8 g/dL
  TBIL: 0.056 mg/dL
  TC: 68 mg/dL
  TP: 6.3 g/dL
  gamma-GTP: 0.6 IU/L
[6]
  APTT: 15.4 s
  Bas: 0.2%
  Eos: 1%
  Fbg: 292 mg/dL
  Ht: 41.2%
  Lym: 77.4%
  MCHC: 32.9%
  MCV: 63.5 fL
  Mono: 2.4%
  PT: 15.4 s
  Plat: 123.5 x10_4/uL
  RBC: 649.4 x10_4/ul
  Ret: 6.1%
[7]
  APTT: 16 s
  Bas: 0.4%
  Eos: 0.8%
  Fbg: 279.4 mg/dL
  Ht: 42.1%
  Lym: 79.2%
  MCHC: 33.2%
  MCV: 60.6 fL
  Mono: 1.8%
  PT: 15.6 s
  Plat: 119.8 x10_4/uL
  RBC: 695.6 x10_4/ul
  Ret: 4.6%
[8]
  APTT: 15.9 s
  Bas: 0%
  Eos: 1.2%
  Fbg: 294.2 mg/dL
  Ht: 44.1%
  Lym: 80.6%
  MCHC: 33.5%
  MCV: 57.9 fL
  Mono: 2.2%
  PT: 15.4 s
  Plat: 94.4 x10_4/uL
  RBC: 761.4 x10_4/ul
  Ret: 2.4%
[9]
  TERMINAL_BW: 229.5 g
  KIDNEY_L: 1 g
  KIDNEY_R: 1 g
  KIDNEY_TOTAL: 2 g
  AST: 67 IU/L
  CRE: 0.2 mg/dL
  GLC: 185.4 mg/dL
  IP: 7.7 mg/dL
  K: 4.1 meq/L
  LDH: 63.4 IU/L
  RALB: 2.6 g/dL
  TBIL: 0.06 mg/dL
  TC: 81.6 mg/dL
  TP: 5.8 g/dL
  gamma-GTP: 1 IU/L
[10]
  APTT: 16.1 s
  Bas: 0%
  Eos: 1%
  Fbg: 294 mg/dL
  Ht: 41.4%
  Lym: 82.6%
  MCHC: 32.5%
  MCV: 65.4 fL
  Mono: 2.8%
  Neu: 12.8%
  PT: 15.9 s
  Plat: 115.2 x10_4/uL
  RBC: 633 x10_4/ul
  Ret: 5.6%
[11]
  TERMINAL_BW: 262.8 g
  KIDNEY_L: 1.1 g
  KIDNEY_R: 1.1 g
  KIDNEY_TOTAL: 2.1 g
  AST: 63.8 IU/L
  CRE: 0.2 mg/dL
  GLC: 182.6 mg/dL
  IP: 7.4 mg/dL
  K: 4.2 meq/L
  LDH: 123.4 IU/L
  RALB: 2.6 g/dL
  TBIL: 0.05 mg/dL
  TC: 75.8 mg/dL
  TP: 5.9 g/dL
  gamma-GTP: 0.8 IU/L
[12]
  TERMINAL_BW: 310.9 g
  KIDNEY_L: 1.3 g
  KIDNEY_R: 1.2 g
  KIDNEY_TOTAL: 2.5 g
  AST: 66.4 IU/L
  CRE: 0.2 mg/dL
  GLC: 175.6 mg/dL
  IP: 6.8 mg/dL
  K: 4.3 meq/L
  LDH: 62.8 IU/L
  RALB: 2.7 g/dL
  TBIL: 0.048 mg/dL
  TC: 72 mg/dL
  TP: 6.2 g/dL
  gamma-GTP: 0.4 IU/L
[13]
  TERMINAL_BW: 402.9 g
  KIDNEY_L: 1.4 g
  KIDNEY_R: 1.3 g
  KIDNEY_TOTAL: 2.7 g
  AST: 62.2 IU/L
  CRE: 0.2 mg/dL
  GLC: 183.2 mg/dL
  IP: 6.9 mg/dL
  K: 3.8 meq/L
  LDH: 53.6 IU/L
  RALB: 2.8 g/dL
  TBIL: 0.052 mg/dL
  TC: 64.2 mg/dL
  TP: 6.3 g/dL
  gamma-GTP: 1 IU/L
[14]
  APTT: 15.6 s
  Bas: 0%
  Eos: 1.2%
  Fbg: 291.6 mg/dL
  Ht: 40.2%
  Lym: 80%
  MCHC: 33.3%
  MCV: 62.5 fL
  Mono: 1.8%
  PT: 15.9 s
  Plat: 120.1 x10_4/uL
  RBC: 644.6 x10_4/ul
  Ret: 4.8%
[15]
  APTT: 16.5 s
  Bas: 0.2%
  Eos: 0.8%
  Fbg: 281.2 mg/dL
  Ht: 41.8%
  Lym: 83.2%
  MCHC: 33.8%
  MCV: 60.5 fL
  Mono: 2.2%
  PT: 16.3 s
  Plat: 108.3 x10_4/uL
  RBC: 691.6 x10_4/ul
  Ret: 4.1%
[16]
  APTT: 17.3 s
  Bas: 0.4%
  Eos: 1.4%
  Fbg: 284.6 mg/dL
  Ht: 43.7%
  Lym: 81.4%
  MCHC: 34%
  MCV: 56.5 fL
  Mono: 2.4%
  PT: 16.4 s
  Plat: 96.2 x10_4/uL
  RBC: 773.2 x10_4/ul
  Ret: 2.3%
